One series concerns the target T1, SirT6 (Homo sapiens, UniProt Q8N6T7).
T1 construct: The protein expression and purification were the same as the full length SIRT6 as described above; made in house; host or cells: E. coli BL21 Codon-plus RIPL
The series can be described thus: Separation of SIRT6-DNA complex on Ni-NTA resin and Kd of DNA by gel electrophoresis (Example 6). Format: binding. The method, then:
The linearized DNA was incubated with SirT6 and Ni-NTA resin. The resin was washed as described in Materials and Methods, and the complex of SirT6-DNA was dissociated by 1 mM suramin. The parallel experiments were done in the presence of 500 uM H3 peptide. DNA bound to SirT6 was quantified and fit to Michaelis-Menten equation to get Kd of DNA binding to the enzyme. […] The single stranded DNA was incubated with SirT6 and Ni-NTA resin. The resin was washed and the complex of SirT6-ssDNA was dissociated by 1 mM suramin. The parallel experiments were done in the presence of 500 uM H3 peptide. […] The linearized DNA was incubated with SirT6 and Ni-NTA resin with or without H3 peptide. After washing, the resin was incubated with different concentration of surmain. The dissociated DNA was quantified by gel electrophoresis. […] After the resin was washed, DNA was dissociated with 1 mM suramin and quantified by gel electrophoresis. Lane 1, 150 ng circular pSTBlue (C-pSTBlue); Lane 2, 150 ng pSTBlue cut with BamHI (B-pSTBlue); Lane 3, 150 ng pSTBlue cut with EcoRV (E-pSTBlue); Lane 4, circular pSTBlue bound to SirT6; Lane 5, pSTBlue cut with BamHI bound to SirT6; Lane 6, pSTBlue cut with EcoRV bound to SirT6; Lane 7, circular pSTBlue bound to SirT6 in the presence of H3; Lane 8, pSTBlue cut with BamHI bound to SirT6 in the presence of H3; Lane 9, pSTBlue cut with EcoRV bound to SirT6 in the presence of H3; Lane 10, DNA ladder.
25% slurry of Ni-NTA resin was incubated with 5 μM SIRT6 and 500 μM H3 peptide for 1 hour at room temperature, in addition with different concentration of pSTBlue which was linearized with BamHI or different concentration of single stranded DNA, and/or 500 μM H3 peptide. After incubation, the resin was spun at 4,000 rpm for 1 minute, and was washed with 10 fold of resin volume with 10 mM imidazole, 100 mM phosphate buffer, pH 7.5, and then 10 fold volume of resin volume with 20 mM imidazole, 10 mM phosphate buffer, pH 7.5. The SIRT6-DNA complex was separated from the resin by adding 250 mM imidazole, 100 mM phosphate buffer, pH 7.5. […] The DNA bound to SIRT6 was then quantified by DNA gel electrophoresis: Linearized pSTBlue was quantified by 0.8% agarose gel electrophoresis using Tris-acetate acid buffer (1×TAE) run at room temperature; single stranded DNA was quantified by 6% acrylamide gel using Tris-boric acid buffer (1×TBE) run at room temperature. […]
In order to test if SIRT6 distinguished different DNA in the binding, pSTBlue was cut with different enzymes and purified by […]™ III kit (MP Biomedicals, LLC). […] DNA was then dissociated from SIRT6 by adding suramin to a final concentration of 1 mM and quantified by 0.8% agarose gel electrophoresis.

Series [1] addresses T2, truncated SirT6 (deletion of N terminal 17 amino acids) (Homo sapiens, UniProt Q8N6T7).
T2 construct: The truncated SIRT6 was cloned similarly with the full length SIRT6; poly-histidine (pET28a) (N); made in house; host or cells: E. coli BL21 Codon-plus RIPL
Nature of the series: Deacetylation rate of truncated SirT6 with suramin or single stranded DNA. Format: biochemical. The settings on record: 50 μM suramin or 100 ng/μl single stranded DNA; 800 μM NAD, 480 μM H3, 10 μM enzyme. The source says:
The deacetylation rate of different truncated SirT6 was normalized to the rate of full length SirT6 for the comparison.
The truncated SIRT6 was cloned similarly with the full length SIRT6. The primers used in the cloning of different truncated SIRT6 are the following: SIRT6Δ2-7 Forward 5′ GCTAGC ATGGGGCTGTCGCCGTACGCG 3′ (SEQ ID NO: 4); SIRT6Δ2-12 Forward 5′ GCTAGC ATG […] 3′ (SEQ ID NO: 5); SIRT6Δ2-18 Forward 5′ GCTAGC ATGGGCCTCCCGGAGATCTTCGAC 3′ (SEQ ID NO: 6); SIRT6Δ2-51 Forward 5′ 5′ GCTAGC ATGACGGGTGCCGGCATCAGCACT 3′ (SEQ ID NO: 7). The common reverse primer is 5′[…] 3′ (SEQ ID NO: 8). The truncated SIRT6 was amplified by PCR reaction. The PCR product was then ligated into pSTblue-1 (Novagen). After digestion with NheI and BamHI, the fragment containing SIRT6 gene was ligated into pET28a vector (Novagen). The SIRT6 truncated sequence in pET28a plasmid was confirmed by DNA sequencing, and the plasmid was then transformed into BL21Codon-plus RIPL cells (Stratagene). The protein expression and purification were the same as the full length SIRT6 as described above.

Where [2] appears, read: in the presence of 500 uM H3 peptide.

T1 sequence (Q8N6T7 whole entry): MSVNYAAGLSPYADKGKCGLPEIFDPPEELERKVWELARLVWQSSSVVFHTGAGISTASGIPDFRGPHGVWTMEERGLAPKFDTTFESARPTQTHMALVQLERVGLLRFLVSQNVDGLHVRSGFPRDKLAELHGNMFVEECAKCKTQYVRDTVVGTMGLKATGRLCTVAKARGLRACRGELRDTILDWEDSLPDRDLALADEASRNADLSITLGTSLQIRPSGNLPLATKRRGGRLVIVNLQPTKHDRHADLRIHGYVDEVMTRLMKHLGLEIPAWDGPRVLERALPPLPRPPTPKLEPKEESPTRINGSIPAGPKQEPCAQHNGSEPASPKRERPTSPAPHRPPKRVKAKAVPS
T2 sequence (Q8N6T7 with tags, fused parts or gaps): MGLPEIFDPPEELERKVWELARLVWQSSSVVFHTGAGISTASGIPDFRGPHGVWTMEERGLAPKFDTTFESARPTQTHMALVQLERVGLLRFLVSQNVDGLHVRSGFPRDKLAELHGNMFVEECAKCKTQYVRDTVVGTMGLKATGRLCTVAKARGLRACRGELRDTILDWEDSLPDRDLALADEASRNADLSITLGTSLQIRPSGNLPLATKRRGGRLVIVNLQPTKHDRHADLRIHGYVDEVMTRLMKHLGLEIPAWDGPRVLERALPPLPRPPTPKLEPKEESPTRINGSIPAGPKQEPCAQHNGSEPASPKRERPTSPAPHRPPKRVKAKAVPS

For “ssDNA: ssDNA 5′ GGGGATCCATGAAGATGAGCTTTGCGTTGACT 3′ (SEQ ID NO: 9), Integrated DNA Technologies (DNA, backbone and methylation of C not given here)”, in the series with SirT6 (in the absence of H3), the “Kd of DNA binding to SirT6” value is 195.5 µg/mL and the “Vmax of DNA bound to SirT6” value is 151.7 ng/µL. Further, in the series with SirT6 (setting [2]), the “Kd of DNA binding to SirT6” value worked out at 238.8 µg/mL and the “Vmax of DNA bound to SirT6” value turned out to be 333.5 ng/µL. The “Activation of truncated SirT6 deacetylation” value in series [1] is given as “lost of activation”.
